# Source: patent US4822791A, “Pharmaceutical compositions of-2,2-1,1-[bis-2,2'-(3,1-benzoxazin-4-one)9 ethylenes” (priority 1984, dated 1989)
# Read-outs that look alike come from different tables or passages of the source.
# How the values were obtained:
# [1] = molecular target: T1, hyaluronidase (Bos taurus, UniProt Q2YDK3); experiment: Anti-hyaluronidase activity (modified Morgan-Elson method); type: biochemical; conditions: for IC50: hyaluronidase 340NF unit/ml, activating agent Compound 48/80 or CaCl2; for IC20: value marked (IC20), read-out: IC20 (printed in IC50 (mM) column); for IC10: value marked (IC10), read-out: IC10 (printed in IC50 (mM) column)
# T1 sequence (Q2YDK3 36-553): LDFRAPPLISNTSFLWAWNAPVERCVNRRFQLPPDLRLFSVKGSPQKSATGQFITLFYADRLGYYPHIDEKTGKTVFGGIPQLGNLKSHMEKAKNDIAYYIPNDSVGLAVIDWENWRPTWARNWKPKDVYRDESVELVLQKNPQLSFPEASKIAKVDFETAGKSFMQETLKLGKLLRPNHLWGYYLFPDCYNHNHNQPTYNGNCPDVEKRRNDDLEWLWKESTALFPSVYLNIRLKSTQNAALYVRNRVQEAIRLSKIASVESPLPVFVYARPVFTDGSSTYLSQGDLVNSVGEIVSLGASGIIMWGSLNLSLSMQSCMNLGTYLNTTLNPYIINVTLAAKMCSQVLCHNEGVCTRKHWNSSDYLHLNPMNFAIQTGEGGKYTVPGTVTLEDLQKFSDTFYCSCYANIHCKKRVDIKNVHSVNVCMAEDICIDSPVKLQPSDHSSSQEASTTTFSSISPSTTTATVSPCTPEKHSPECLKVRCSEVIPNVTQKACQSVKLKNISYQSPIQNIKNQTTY
# Procedure: A buffer soluticn of hyaluronidase (0.1 ml) was taken in a test tube and 0.2 ml each of the buffer solution of various compounds in various concentrations was added, and the mixture was preincubated at 37° C. for 20 minutes. Then, an activating agent (Compound 48/80 or CaCl2) (0.2 ml) was added to make the total amount 0.5 ml, which was incubated at 37° C. for 20 minutes. Then, potassium hyaluronate buffer solution (0.5 ml) was added, and the mixture was incubated at 37° C. for 40 minutes. After cooling, the mixture was treated with aqueous solution of 0.4N NaOH (0.2 ml) and neutralized to stop the reaction. The resulting product was subjecred to measurement of OD585 by the modified Morgan-Elson Method. […] (The final ccncentration of hyaluronidase was 340NF unit/ml.) [formula]
# [2] = test system: passive cutaneous anaphylaxis (PCA); experiment: Anti-passive cutaneous anaphylaxis (PCA) activity in rats (Test Example 2); type: in vivo, Wistar strain rats; conditions: Rattus norvegicus, N 10; for inhibition in vivo at 10 mg/kg: 10 mg/kg PO; for inhibition in vivo at 50 mg/kg: 50 mg/kg PO; for inhibition in vivo at 100 mg/kg: 100 mg/kg PO
# Procedure: Wistar strain rats were sensitized with ovalbumin using aluminium hydroxide gel and Bordetella Pertussis vaccine as adjuvants. Dilutions of antiserum (16-fold and 32-fold) obtained by collecting blood samples 14 days later were administered subcutaneously in the dorsal skin of the rats of the same strain at the rate of 0.1 ml per spot, and the rats were grown for 48 hours. One hour after peroral administration of the sample solution, a mixture of antigen ovalbumin and Evans-blue dye was administered to the tail venous of the animal according to the ordinary procedure. Thirty minutes later, the animals were sacrificed by exsanguination, and the areas of blue spots (long diameter×short diameter) eliciting on the portion of the antiserum injection at the dorsal skin were measured to obtain the rate of inhibition based on the average value shown by the control animals.
# [3] = test system: experimental ulcer model (Shay); experiment: Anti-ulcer activity in experimental ulcer model (Shay); type: in vivo, Wistar strain male rats
# Procedure: Using 5 eight-week old Wistar strain male rats of 1 group, the rats were previously fasted for […]. The compound of an amount proportionate to the body weight based on the body weight after fasting was administered intraduodenally or intraperitoneally.
# Each test compound was evenly suspended or dissolved in an aqueous solution of 0.5% CMC ccntaining 0.1% Tween 80, and administered at the rate of 0.5 ml per 100 g of body weight of the animal. To the controls, only the solvent was administered.
# Test was carried out in accordance with Shay's method. After 48 hours' fasting, 5 animals per group were subjected to laparotomy under ether anesthesia, the tract between pylorus of stomach and duodenum was ligated, and the solution of the compound was administered intraduodenally (id) or intraperitoneally (ip), followed by suturing the laparotomy part. Eight hours after administration of the compound liquid, each animal was sacrificed by ether anesthesia and stomach was removed. Then, evaluation on the ulcer condition on the inner surface of stomach, and determination of the amount of gastric juice, of acidity by alkali titration, and of pepsin titer based on substrate of hemoglovin were made on the stored gastric juice. With regard to the acidity, gastric juice amount, and pepsin titer, the results were shown in inhibition rate (%) based on the average value of the control groups.
# [4] = read-out: Average Inhibition Rate (%) Antiserum Dilution: × 16
# [5] = read-out: Average Inhibition Rate (%) Antiserum Dilution: × 32
structure (smiles),measurement,setting,value
O=C(Nc1ccccc1C(=O)O)C(=Cc1ccccc1)C(=O)Nc1ccccc1C(=O)O,IC50,[1]; read-out: IC50,0.035 mM
"O=C(CC(=O)Nc1ccccc1C(=O)O)Nc1ccccc1C(=O)O [Compound 01, 2,2'-[(1,3-dioxo-1.3-propanediyl)diimino]bisbenzoic acid]",IC50,[1]; read-out: IC50,0.077 mM
O=C(CC(=O)Nc1cccc(C(=O)O)c1)Nc1cccc(C(=O)O)c1 [Compound 02],IC20,[1],0.9 mM
CCOC(=O)c1ccccc1NC(=O)CC(=O)Nc1ccccc1C(=O)OCC [Compound 04],IC10,[1],0.015 mM
O=C(CC(=O)Nc1cc(Cl)ccc1C(=O)O)Nc1cc(Cl)ccc1C(=O)O [Compound 05],IC10,[1],1.32 mM
"O=C(CC(=O)Nc1cc([N+](=O)[O-])ccc1C(=O)O)Nc1cc([N+](=O)[O-])ccc1C(=O)O [Compound 06, 4,4'-dinitro-2,2'-[(1,3-dioxo-1,3-propanediyl)diimino]bisbenzoic acid]",inhibition in vivo at 10 mg/kg,[2]; [4],8.5%
same,inhibition in vivo at 10 mg/kg,[2]; [5],11.2%
same,inhibition in vivo at 50 mg/kg,[2]; [4],14.9%
same,inhibition in vivo at 50 mg/kg,[2]; [5],13.3%
same,inhibition in vivo at 100 mg/kg,[2]; [4],18.6%
same,inhibition in vivo at 100 mg/kg,[2]; [5],18.8%
same,IC50,[1]; IC50 (mM),0.013 mM
Cc1ccc(NC(=O)CC(=O)Nc2ccc(C)cc2C(=O)O)c(C(=O)O)c1 [Compound 07],IC10,[1],0.66 mM
same,IC20,[1],0.72 mM
COc1ccc(C(=O)O)cc1NC(=O)CC(=O)Nc1cc(C(=O)O)ccc1OC [Compound 08],IC10,[1],0.22 mM
"O=C(CC(=O)Nc1cc(Cl)ccc1C(=O)O)Nc1ccccc1C(=O)O [Compound 09, 4-chloro-2,2'-[(1,3-dioxo-1,3propanediyl)diimino]bisbenzoic acid]",IC50,[1]; read-out: IC50,0.134 mM
O=C(Nc1cccc(C(=O)O)c1)C(=Cc1ccccc1)C(=O)Nc1cccc(C(=O)O)c1 [Compound 12],IC50,[1]; read-out: IC50,0.065 mM
O=C(Nc1ccc(C(=O)O)cc1)C(=Cc1ccccc1)C(=O)Nc1ccc(C(=O)O)cc1 [Compound 13],IC50,[1]; read-out: IC50,0.055 mM
O=C(Nc1cc(Cl)ccc1C(=O)O)C(=Cc1ccccc1)C(=O)Nc1cc(Cl)ccc1C(=O)O [Compound 15],IC50,[1]; read-out: IC50,0.055 mM
O=C(Nc1cc([N+](=O)[O-])ccc1C(=O)O)C(=Cc1ccccc1)C(=O)Nc1cc([N+](=O)[O-])ccc1C(=O)O [Compound 16],inhibition in vivo at 50 mg/kg,[2]; [4],3.2%
same,inhibition in vivo at 50 mg/kg,[2]; [5],9%
same,inhibition in vivo at 100 mg/kg,[2]; [4],11.8%
same,inhibition in vivo at 100 mg/kg,[2]; [5],12.2%
same,IC50,[1]; IC50 (mM),0.01 mM
Cc1ccc(NC(=O)C(=Cc2ccccc2)C(=O)Nc2ccc(C)cc2C(=O)O)c(C(=O)O)c1 [Compound 17],IC50,[1]; read-out: IC50,0.142 mM
COc1ccc(C(=O)O)cc1NC(=O)C(=Cc1ccccc1)C(=O)Nc1cc(C(=O)O)ccc1OC [Compound 18],IC10,[1],0.29 mM
COc1ccc(C=C(C(=O)Nc2ccccc2C(=O)O)C(=O)Nc2ccccc2C(=O)O)cc1 [Compound 19],IC50,[1]; read-out: IC50,0.013 mM
COc1cc(C=C(C(=O)Nc2ccccc2C(=O)O)C(=O)Nc2ccccc2C(=O)O)cc(OC)c1OC [Compound 23],Inhibition % Gastric Acidity,[3]; id 100 mg/kg,32.5%
same,Inhibition % secretion amount of gastric juice,[3]; id 100 mg/kg,8.5%
same,Inhibition % total pepsin titer,[3]; id 100 mg/kg,31.1%
same,Inhibition % Gastric Acidity,[3]; id 200 mg/kg,40.2%
same,Inhibition % secretion amount of gastric juice,[3]; id 200 mg/kg,11.2%
same,Inhibition % total pepsin titer,[3]; id 200 mg/kg,41.2%
same,IC50,[1]; read-out: IC50,0.03 mM
O=C(Nc1ccccc1C(=O)O)C(=Cc1ccc2c(c1)OCO2)C(=O)Nc1ccccc1C(=O)O [Compound 25],Inhibition % Gastric Acidity,[3]; id 100 mg/kg,45.2%
same,Inhibition % secretion amount of gastric juice,[3]; id 100 mg/kg,25.5%
same,Inhibition % total pepsin titer,[3]; id 100 mg/kg,32.1%
same,Inhibition % Gastric Acidity,[3]; id 200 mg/kg,80.0%
same,Inhibition % secretion amount of gastric juice,[3]; id 200 mg/kg,50.7%
same,Inhibition % total pepsin titer,[3]; id 200 mg/kg,40.5%
same,Inhibition % Gastric Acidity,[3]; ip 50 mg/kg,67.4%
same,Inhibition % secretion amount of gastric juice,[3]; ip 50 mg/kg,53.4%
same,Inhibition % total pepsin titer,[3]; ip 50 mg/kg,82.2%
same,IC50,[1]; read-out: IC50,0.013 mM
CC(C)c1ccc(C=C(C(=O)Nc2ccccc2C(=O)O)C(=O)Nc2ccccc2C(=O)O)cc1 [Compound 27],IC50,[1]; read-out: IC50,0.03 mM
CN(C)c1ccc(C=C(C(=O)Nc2ccccc2C(=O)O)C(=O)Nc2ccccc2C(=O)O)cc1 [Compound 28],IC50,[1]; read-out: IC50,0.11 mM
O=C(Nc1ccccc1C(=O)O)C(=Cc1cccc(Cl)c1)C(=O)Nc1ccccc1C(=O)O [Compound 31],IC50,[1]; read-out: IC50,0.025 mM
O=C(Nc1ccccc1C(=O)O)C(=Cc1ccccc1Cl)C(=O)Nc1ccccc1C(=O)O [Compound 32],IC50,[1]; read-out: IC50,0.025 mM
O=C(Nc1ccccc1C(=O)O)C(=Cc1ccc(Br)cc1)C(=O)Nc1ccccc1C(=O)O [Compound 33],IC50,[1]; read-out: IC50,0.015 mM
O=C(Nc1ccccc1C(=O)O)C(=Cc1ccc(F)cc1)C(=O)Nc1ccccc1C(=O)O [Compound 34],IC50,[1]; read-out: IC50,0.025 mM
O=C(Nc1ccccc1C(=O)O)C(=Cc1ccc(C(F)(F)F)cc1)C(=O)Nc1ccccc1C(=O)O [Compound 35],IC50,[1]; read-out: IC50,0.015 mM
"O=C(Nc1ccccc1C(=O)O)C(=Cc1ccc([N+](=O)[O-])cc1)C(=O)Nc1ccccc1C(=O)O [Compound 36, 2,2'-[[1,3-dioxo-2-(4-nitro)phenylmethylene-1,3-propanediyl]diimino]bisbenzoic acid]",IC50,[1]; read-out: IC50,0.025 mM
N#Cc1ccc(C=C(C(=O)Nc2ccccc2C(=O)O)C(=O)Nc2ccccc2C(=O)O)cc1 [Compound 37],IC50,[1]; read-out: IC50,0.017 mM
O=C(Nc1ccccc1C(=O)O)C(=Cc1cccc2ccccc12)C(=O)Nc1ccccc1C(=O)O [Compound 38],IC50,[1]; read-out: IC50,0.023 mM
O=C(Nc1ccccc1C(=O)O)C(=Cc1ccco1)C(=O)Nc1ccccc1C(=O)O [Compound 39],IC50,[1]; read-out: IC50,0.04 mM
"O=C(Nc1ccccc1C(=O)O)C(=Cc1cccs1)C(=O)Nc1ccccc1C(=O)O [Compound 40, 2,2'-[[1,3-dioxo-2-{2-thienyl)methylene-1,3-propanediyl]diimino]bisbenzoicacid]",IC50,[1]; read-out: IC50,0.035 mM
"O=C(Nc1ccccc1C(=O)O)C(=Cc1ccsc1)C(=O)Nc1ccccc1C(=O)O [Compound 41, 2,2'-[(1,3-dioxo-2-(3-thienyl)methylene-1,3-propanediyl)diimino]bisbenzoicacid]",IC50,[1]; read-out: IC50,0.06 mM
O=C(Nc1ccccc1C(=O)O)C(=Cc1ccc[nH]1)C(=O)Nc1ccccc1C(=O)O [Compound 42],IC50,[1]; read-out: IC50,0.025 mM
"Cn1cccc1C=C(C(=O)Nc1ccccc1C(=O)O)C(=O)Nc1ccccc1C(=O)O [Compound 43, 2,2'-[(1,3-dioxo-2-(1-methyl-1H-pyrrol-2-yl)methylene-1,3-propanediyl)diimino]bisbenzoic acid]",IC50,[1]; read-out: IC50,0.04 mM
O=C(Nc1ccccc1C(=O)O)C(=Cc1cccnc1)C(=O)Nc1ccccc1C(=O)O [Compound 44],IC50,[1]; read-out: IC50,0.073 mM
Cn1cc(C=C(C(=O)Nc2ccccc2C(=O)O)C(=O)Nc2ccccc2C(=O)O)c2ccccc21 [Compound 45],IC50,[1]; read-out: IC50,0.01 mM
"O=C(Nc1ccccc1C(=O)O)C(=Cc1ccccc1)C(=O)Nc1cc(Cl)ccc1C(=O)O [Compound 46, 4-chloro-2,2'-[(1,3-dioxo-2-phenylmethylene-1,3-propanediyl)diimimo]bisbenzoic acid]",IC50,[1]; read-out: IC50,0.03 mM
"O=C(O)c1ccccc1NC(=O)C(Cc1ccccc1)C(=O)Nc1ccccc1C(=O)O [Compound 50, 2,2'-[(1,3-dioxo-2-phenylmethyl-1,3-propanediyl)diimino]bisbenzoic acid]",IC50,[1]; read-out: IC50,0.05 mM
"CNC(=C[N+](=O)[O-])NCCSCc1ccc(CN(C)C)o1 [Ranitidine, reference compound]",Inhibition % Gastric Acidity,[3]; id 30 mg/kg,63.0%
same,Inhibition % secretion amount of gastric juice,[3]; id 30 mg/kg,25.2%
same,Inhibition % total pepsin titer,[3]; id 30 mg/kg,20.6%
